Assay results published in patent US9247750B2, “Polyenylcyclopropanecarboxylic esters with high insecticidal activity” (Endura S.P.A., priority 2007, dated 2016).

Legend:
Aedes aegypti = test: Insecticide effectiveness in the vapour phase against mosquitoes, impregnated paper unit in 20 m^3 room (Example 9); type: in vivo; conditions: 5 mg/unit; for % mortality 24 h: 24th hour from start of test; for % Knock-down 8 h: at end of 8th hour; for Knock-down time KT10 / Knock-down time KT50 / Knock-down time KT90: average of 3 cages
Experimental: (§1) Test units consisting of a paper support 20 cm×10 cm in size were impregnated with the compound of examples 3, 7 and 8 and, for comparative purposes, with the reference compounds transfluthrin and metofluthrin, at an amount of 5.00 mg/unit for each compound (pure). Using a common laboratory stand, the test unit was placed at a height of about 30 cm from the ground along one side of a 20 m^3 room (L 3.00 m×D 2.49 m×H 2.69 m). In order to homogenize the insecticidal air within the room, a small electric fan was placed on the floor diagonal to the surface of the unit, in the nearest corner at a distance of about 50 cm from the unit. Three metal cages (L 8.4 cm×Ø 8.0 cm×mesh 1.0 mm) for every mosquito species, each containing 20 3-4 day old individuals of mixed sex, were placed along the other three sides of the room, at a height of 1.80 m from the ground and at a distance of 0.45 m from the respective walls. During the test the room was kept closed and temperature and humidity were controlled (T 23-26° C., RH 49-61%). The fan was switched on and left on for 8 continuous hours. The times needed to reach 10%, 50% and 90% insect knock-down (KT10, KT50 and KT90, respectively) were recorded.
(§2) Every 2 hours and up to the 6th hour after the fan was switched on, new cages were introduced containing insects (set of 3 cages for each species).
(§3) At the end of the 8th hour, the percentage of insects knocked down in all the cages was determined, then the insects were removed from the room and transferred into an uncontaminated atmosphere within closed containers containing a sugary solution. The percentage mortality was recorded at the 24th hour from the start of the test.
(§4) The results obtained are summarized in tables 1 and 2 and the data are averages for the 3 cages.

Culex quinquefasciatus = test: as above; type: in vivo; conditions: 5 mg/unit; for % mortality 24 h: 24th hour from start of test; for % Knock-down 8 h: at end of 8th hour; for Knock-down time KT10 / Knock-down time KT50 / Knock-down time KT90: average of 3 cages
Experimental: as §1, §2, §3, §4

`C=CC=C[C@@H]1[C@@H](C(=O)OCc2c(F)c(F)c(COC)c(F)c2F)C1(C)C` (mixture of isomers) [Example 8, 2,3,5,6-tetrafluoro-4-methoxymethyl benzyl(1R,3R)-3-((E/Z)-Buta-1,3-dienyl)-2,2-dimethylcyclopropane-1-carboxylate] was tested, and the “% mortality 24 h” value (Aedes aegypti; insect exposure after 0 hours) was 100%, the “% Knock-down 8 h” value (Aedes aegypti; insect exposure after 0 hours) was 100% and the “Knock-down time KT10” value (Aedes aegypti; insect exposure after 0 hours) was 22 min. The “Knock-down time KT50” value (Aedes aegypti; insect exposure after 0 hours) was 31 min, the “Knock-down time KT90” value (Aedes aegypti; insect exposure after 0 hours) was 40 min and the “% mortality 24 h” value (Aedes aegypti; insect exposure after 2 hours) was 100%. For the same molecule, the “% Knock-down 8 h” value (Aedes aegypti; insect exposure after 2 hours) was 100%, the “Knock-down time KT10” value (Aedes aegypti; insect exposure after 2 hours) was 12 min and the “Knock-down time KT50” value (Aedes aegypti; insect exposure after 2 hours) was 29 min. For the same molecule, the “Knock-down time KT90” value (Aedes aegypti; insect exposure after 2 hours) was 41 min, the “% mortality 24 h” value (Aedes aegypti; insect exposure after 4 hours) was 100% and the “% Knock-down 8 h” value (Aedes aegypti; insect exposure after 4 hours) was 100%. For the same molecule, the “Knock-down time KT10” value (Aedes aegypti; insect exposure after 4 hours) was 18 min, the “Knock-down time KT50” value (Aedes aegypti; insect exposure after 4 hours) was 32 min and the “Knock-down time KT90” value (Aedes aegypti; insect exposure after 4 hours) was 50 min. The “% mortality 24 h” value (Culex quinquefasciatus; insect exposure after 0 hours) was 83%, the “% Knock-down 8 h” value (Culex quinquefasciatus; insect exposure after 0 hours) was 100% and the “Knock-down time KT10” value (Culex quinquefasciatus; insect exposure after 0 hours) was 35 min. The “Knock-down time KT50” value (Culex quinquefasciatus; insect exposure after 0 hours) was 44 min, the “Knock-down time KT90” value (Culex quinquefasciatus; insect exposure after 0 hours) was 70 min and the “% mortality 24 h” value (Culex quinquefasciatus; insect exposure after 2 hours) was 70%. For the same molecule, the “% Knock-down 8 h” value (Culex quinquefasciatus; insect exposure after 2 hours) was 100%, the “Knock-down time KT10” value (Culex quinquefasciatus; insect exposure after 2 hours) was 39 min and the “Knock-down time KT50” value (Culex quinquefasciatus; insect exposure after 2 hours) was 50 min. For the same molecule, the “Knock-down time KT90” value (Culex quinquefasciatus; insect exposure after 2 hours) was 68 min, the “% mortality 24 h” value (Culex quinquefasciatus; insect exposure after 4 hours) was 61% and the “% Knock-down 8 h” value (Culex quinquefasciatus; insect exposure after 4 hours) was 100%. For the same molecule, the “Knock-down time KT10” value (Culex quinquefasciatus; insect exposure after 4 hours) was 39 min, the “Knock-down time KT50” value (Culex quinquefasciatus; insect exposure after 4 hours) was 53 min and the “Knock-down time KT90” value (Culex quinquefasciatus; insect exposure after 4 hours) was 66 min.
